This passage reports inhibition, Activity and IC50 results from ChEMBL document CHEMBL3400091, “4-Dechloro-14-deoxy-oxacyclododecindione and 14-deoxy-oxacylododecindione, two inhibitors of inducible connective tissue growth factor expression from the imperfect fungus Exserohilum rostratum” (Bioorg Med Chem, 2015).

Data set [1] deals with HepG2. Kind of data set: Inhibition of TGF-beta-induced human CTGF promoter activity transiently transfected in human HepG2 cells assessed as reduction in plasminogen activator inhibitor-1 expression preincubated at 700 nM for 1 hr before TGF-beta stimulation measured after 6 hrs by quantitative real-time PCR analysis. In kind it is cell-based. In general terms: In qPCR the cycle at which signal appears reflects the starting amount.

In data set [2] the test system is MDA-MB-231. Briefly: Cytotoxicity against human MDA-MB-231 cells at 1.4 uM after 48 hrs by XTT assay. The conditions noted are these: mda-mb-231, 48 h. In kind it is cell-based.
The nature of data set [3]: (§1) Inhibition of TGF-beta-induced human CTGF promoter activity transiently transfected in human HepG2 cells after 16 hrs by luciferase reporter assay. The format is cell-based. The conditions noted are these: HepG2, 16 h. Background: In a reporter assay the amount or activity of a reporter protein is the signal.
Data set [4] relates to HepG2. The description is as §1. The format is cell-based.
The nature of data set [5]: Binding affinity to (AGCCAGACA)9-MLP element (unknown origin) transiently transfected in human HepG2 cells assessed as inhibition of TGF-beta-induced Smad-dependent transcriptional activity preincubated for 1 hr before TGF-beta stimulation measured after 16 hrs by luciferase reporter assay. In kind it is cell-based.
Data set [6] concerns MDA-MB-231. Kind of data set: Antimigratory activity against human MDA-MB-231 cells assessed as reduction in formation of tubule-like structures after 16 hrs by matrigel assay relative to control. The format is functional, cell-based.
Data set [7] concerns HepG2. Briefly: Inhibition of TGF-beta-induced human CTGF promoter activity transiently transfected in human HepG2 cells assessed as CTGF protein expression preincubated at 714 nM for 1 hr before TGF-beta stimulation measured after 8 hrs by Western blot analysis. In kind it is cell-based.
Data set [8] has as its system HepG2. Kind of data set: Inhibition of TGF-beta-induced human CTGF promoter activity transiently transfected in human HepG2 cells assessed as reduction in tgf-beta expression preincubated at 700 nM for 1 hr before TGF-beta stimulation measured after 6 hrs by quantitative real-time PCR analysis. The format is cell-based.
Data set [9] relates to HepG2. Kind of data set: Inhibition of TGF-beta-induced human CTGF promoter activity transiently transfected in human HepG2 cells assessed as CTGF expression preincubated at 700 nM for 1 hr before TGF-beta stimulation measured after 4 hrs by quantitative real-time PCR analysis. The format is cell-based.
Data set [10] relates to HepG2. Briefly: Inhibition of TGF-beta-induced human CTGF promoter activity transiently transfected in human HepG2 cells assessed as reduction in alpha-smooth muscle actin expression preincubated at 700 nM for 1 hr before TGF-beta stimulation measured after 6 hrs by quantitative real-time PCR analysis. The format is cell-based.
The test system of data set [11] is MDA-MB-231. Briefly: Antimigratory activity against human MDA-MB-231 cells assessed as reduction in formation of tubule-like structures at 568 nM after 16 hrs by matrigel assay relative to control. The format is functional. The arrangement: scale not given: the % may be the effect or the level left.
In data set [12] the test system is HepG2. Briefly: Inhibition of TGF-beta-induced human CTGF promoter activity transiently transfected in human HepG2 cells assessed as reduction in mmp2 expression preincubated at 700 nM for 1 hr before TGF-beta stimulation measured after 6 hrs by quantitative real-time PCR analysis. The format is cell-based.
Data set [13] has as its system HepG2. Kind of data set: Inhibition of TGF-beta-induced human CTGF promoter activity transiently transfected in human HepG2 cells assessed as reduction in type 1 collagen alpha1 expression preincubated at 700 nM for 1 hr before TGF-beta stimulation measured after 6 hrs by quantitative real-time PCR analysis. The format is cell-based.
For data set [14], the system named is HepG2. Briefly: Cytotoxicity against human HepG2 cells at 1.4 uM after 48 hrs by XTT assay. In kind it is cell-based. The conditions noted are these: hepg2, 48 h. (Tetrazolium dyes change colour on reduction, which living cells bring about.)
Data set [15] deals with HepG2. Briefly: Inhibition of TGF-beta-induced human CTGF promoter activity transiently transfected in human HepG2 cells assessed as reduction in mmp2 expression preincubated at 680 nM for 1 hr before TGF-beta stimulation measured after 6 hrs by quantitative real-time PCR analysis. In kind it is cell-based.
Data set [16] relates to HepG2. Briefly: Inhibition of TGF-beta-induced human CTGF promoter activity transiently transfected in human HepG2 cells assessed as reduction in type 1 collagen alpha1 expression preincubated at 680 nM for 1 hr before TGF-beta stimulation measured after 6 hrs by quantitative real-time PCR analysis. The format is cell-based.
The test system of data set [17] is HepG2. Briefly: Inhibition of TGF-beta-induced human CTGF promoter activity transiently transfected in human HepG2 cells assessed as reduction in plasminogen activator inhibitor-1 expression preincubated at 680 nM for 1 hr before TGF-beta stimulation measured after 6 hrs by quantitative real-time PCR analysis. The format is cell-based.
Data set [18] has as its system HepG2. Kind of data set: Inhibition of TGF-beta-induced human CTGF promoter activity transiently transfected in human HepG2 cells assessed as CTGF expression preincubated at 680 nM for 1 hr before TGF-beta stimulation measured after 4 hrs by quantitative real-time PCR analysis. The format is cell-based.
Data set [19] relates to MDA-MB-231. Briefly: Antimigratory activity against human MDA-MB-231 cells assessed as reduction in formation of tubule-like structures at 136 nM after 16 hrs by matrigel assay relative to control. In kind it is functional. The arrangement: scale not given: the % may be the effect or the level left.
Data set [20] relates to HepG2. Briefly: Inhibition of TGF-beta-induced human CTGF promoter activity transiently transfected in human HepG2 cells assessed as reduction in tgf-beta expression preincubated at 680 nM for 1 hr before TGF-beta stimulation measured after 6 hrs by quantitative real-time PCR analysis. The format is cell-based.
The subject of data set [21] is HepG2. Kind of data set: Inhibition of TGF-beta-induced human CTGF promoter activity transiently transfected in human HepG2 cells assessed as CTGF protein expression preincubated at 407 nM for 1 hr before TGF-beta stimulation measured after 8 hrs by Western blot analysis. In kind it is cell-based.
The subject of data set [22] is HepG2. Briefly: Inhibition of TGF-beta-induced human CTGF promoter activity transiently transfected in human HepG2 cells assessed as reduction in alpha-smooth muscle actin expression preincubated at 680 nM for 1 hr before TGF-beta stimulation measured after 6 hrs by quantitative real-time PCR analysis. In kind it is cell-based.
Data set [23] relates to MDA-MB-231. Briefly: Antimigratory activity against human MDA-MB-231 cells assessed as reduction in formation of tubule-like structures at 275 nM after 16 hrs by matrigel assay relative to untreated control. The format is functional. The arrangement: scale not given: the % may be the effect or the level left.
In data set [24] the test system is HepG2. Briefly: Inhibition of TGF-beta-induced human CTGF promoter activity transiently transfected in human HepG2 cells assessed as reduction in alpha-smooth muscle actin expression preincubated at 3.2 uM for 1 hr before TGF-beta stimulation measured after 6 hrs by quantitative real-time PCR analysis. The format is cell-based.
Data set [25] deals with MDA-MB-231. Kind of data set: Cytotoxicity against human MDA-MB-231 cells at 3.2 uM after 48 hrs by XTT assay. In kind it is cell-based. The conditions noted are these: mda-mb-231, 48 h.
Data set [26] has as its system HepG2. Briefly: Inhibition of TGF-beta-induced human CTGF promoter activity transiently transfected in human HepG2 cells assessed as CTGF expression preincubated at 3.2 uM for 1 hr before TGF-beta stimulation measured after 4 hrs by quantitative real-time PCR analysis. The format is cell-based.
Data set [27] relates to HepG2. Briefly: Inhibition of TGF-beta-induced human CTGF promoter activity transiently transfected in human HepG2 cells assessed as CTGF protein expression preincubated at 3144 nM for 1 hr before TGF-beta stimulation measured after 8 hrs by Western blot analysis. The format is cell-based.
Data set [28] relates to HepG2. Briefly: Inhibition of TGF-beta-induced human CTGF promoter activity transiently transfected in human HepG2 cells assessed as reduction in type 1 collagen alpha1 expression preincubated at 3.2 uM for 1 hr before TGF-beta stimulation measured after 6 hrs by quantitative real-time PCR analysis. In kind it is cell-based.
Data set [29] relates to HepG2. Kind of data set: Inhibition of TGF-beta-induced human CTGF promoter activity transiently transfected in human HepG2 cells assessed as reduction in plasminogen activator inhibitor-1 expression preincubated at 3.2 uM for 1 hr before TGF-beta stimulation measured after 6 hrs by quantitative real-time PCR analysis. The format is cell-based.
The test system of data set [30] is MDA-MB-231. Briefly: Antimigratory activity against human MDA-MB-231 cells assessed as reduction in formation of tubule-like structures at 2.4 uM after 16 hrs by matrigel assay relative to control. In kind it is functional, cell-based.
The test system of data set [31] is HepG2. Briefly: Cytotoxicity against human HepG2 cells at 3.2 uM after 48 hrs by XTT assay. In kind it is cell-based. The conditions noted are these: hepg2, 48 h.
Data set [32] relates to HepG2. Briefly: Inhibition of TGF-beta-induced human CTGF promoter activity transiently transfected in human HepG2 cells assessed as reduction in mmp2 expression preincubated at 3.2 uM for 1 hr before TGF-beta stimulation measured after 6 hrs by quantitative real-time PCR analysis. The format is cell-based.
Data set [33] relates to HepG2. Kind of data set: Binding affinity to (AGCCAGACA)9-MLP element (unknown origin) transiently transfected in human HepG2 cells assessed as inhibition of TGF-beta-induced Smad-dependent transcriptional activity measured as remaining activity preincubated at 2.2 uM for 1 hr before TGF-beta stimulation measured after 16 hrs by luciferase reporter assay. In kind it is cell-based.

Data set [34] has as its system HepG2. Kind of data set: Inhibition of TGF-beta-induced human CTGF promoter activity transiently transfected in human HepG2 cells assessed as reduction in tgf-beta expression preincubated at 3.2 uM for 1 hr before TGF-beta stimulation measured after 6 hrs by quantitative real-time PCR analysis. The format is cell-based.

Active and inactive are the calls of the source. The rule behind the calls is not given here.

As usually defined, the IC50 is the midpoint of a concentration-inhibition curve. As to `C/C1=C\CCC(C)C(C)OC(=O)Cc2c(Cl)c(O)cc(O)c2C1=O` (stereo unspecified), the inhibition entry in [1], in [8], in data set [9], in data set [10], in data set [12] and in [13] was “Active” in each case. For the same compound, the Activity entry in data set [2] is “Non-toxic”; in data set [6], “Dose-dependent effect”; in [11], more than 70%; in data set [14], “Non-toxic”. In addition, the IC50 amounted to 0.336 µM in data set [3] and 0.21 µM in data set [5]. Also, the inhibition result in data set [4] was “Dose-dependent effect”. Besides, in [7], the inhibition entry was “inactive”.

With `C/C1=C\CCC(C)(O)C(C)OC(=O)Cc2c(Cl)c(O)cc(O)c2C1=O` (stereo unspecified), the inhibition entry in data set [15], in [16], in [17], in data set [18], in [20] and in data set [21] was “Active” each time. Moreover, the inhibition result in data set [22] was “Active”. The IC50 in data set [3] and in [5] was 0.136 µM in each case. In addition, in [4], the inhibition result was “Dose-dependent effect”. Further, the Activity entry in data set [6] is “Dose-dependent effect”; in data set [19], more than 70%.

`c1ccc(-c2n[nH]cc2-c2ccnc3ccccc23)nc1`: the Activity in data set [23] stood at 30%.

Consider `C/C1=C\CCC(C)C(C)OC(=O)Cc2cc(O)cc(O)c2C1=O` (stereo unspecified), for which the inhibition entry in data set [24], in [26], in [28], in data set [29], in data set [32] and in [33] was “Active” each time. The inhibition result in [34] was “Active”. The values for the Activity entry in data set [25], in data set [31] and in data set [6] were “Non-toxic”, “Non-toxic” and “Dose-dependent effect”, respectively. The inhibition entry in data set [27] was “inactive”. For the same compound, the values for the 50% inhibitory concentration (IC50) in [3] and in data set [5] were 1.8 µM and more than 2.2 µM, respectively. Besides, in data set [4], the inhibition entry is “Dose-dependent effect”. For the same compound, the outcome in [30] was Active.

For the compound `C[C@H]1CCC/C=C/C(=O)c2c(O)cc(O)cc2CC(=O)O1` [DEHYDROCURVULARIN], the values for the concentration for half-maximal inhibition (IC50) in data set [3] and in data set [5] were 4.4 µM and 1.7 µM, respectively.

As to `C[C@H]1CCCCCC(=O)c2c(O)cc(O)cc2CC(=O)O1`, the figures for the 50% inhibitory concentration (IC50) in [3] and in [5] were 86.4 µM and 34.2 µM, respectively.
